Source: ChEMBL document CHEMBL1201861, “Genomics of Drug Sensitity in Cancer screening data, Wellcome Trust Sanger Institute”

Experiments:
Assay type in all cases: functional, cell-based
Ca9-22 = assay: cells; conditions: Homo sapiens;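 note: growth inhibition of Ca9-22 cells, read out with a cell viability assay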
Description: SANGER: Inhibition of human Ca9-22 cell growth in a cell viability assay.

Calu-3 = assay: cells; conditions: Homo sapiens;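 note: growth inhibition of human Calu-3 cells, determined with a cell viability assay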
Description: SANGER: Inhibition of human Calu-3 cell growth in a cell viability assay.

D-392MG = assay: cells; conditions: Homo sapiens
D-542MG = assay: cells; conditions: Homo sapiens
Description: SANGER: Inhibition of human D-542MG cell growth in a cell viability assay.

EFO-27 = assay: cells; conditions: Homo sapiens;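 note: growth inhibition of EFO-27 cells, read out with a cell viability assay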
Description: SANGER: Inhibition of human EFO-27 cell growth in a cell viability assay.

HCC1395 = assay: cells; conditions: Homo sapiens;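 note: growth inhibition of HCC1395 cells, read out by a cell viability assay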
Description: SANGER: Inhibition of human HCC1395 cell growth in a cell viability assay.

HO-1-N-1 = assay: cells; conditions: Homo sapiens;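 note: growth inhibition of human HO-1-N-1 cells, read out with a cell viability assay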
Description: SANGER: Inhibition of human HO-1-N-1 cell growth in a cell viability assay.

HPAF-II = assay: cells; conditions: Homo sapiens;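 note: growth inhibition of HPAF-II cells, read out with a cell viability assay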
Description: SANGER: Inhibition of human HPAF-II cell growth in a cell viability assay.

HT55 = assay: cells; conditions: Homo sapiens;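 note: cell viability readout measuring growth inhibition of human HT55 cells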
Description: SANGER: Inhibition of human HT55 cell growth in a cell viability assay.

IM-9 = assay: SANGER: Inhibition of human IM-9 cell growth in a cell viability assay.
IMR-5 = assay: cells; conditions: Homo sapiens;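 note: growth inhibition of human IMR-5 cells, read out with a cell viability assay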
Description: SANGER: Inhibition of human IMR-5 cell growth in a cell viability assay.

KARPAS-422 = assay: cells; conditions: Homo sapiens
Description: SANGER: Inhibition of human KARPAS-422 cell growth in a cell viability assay.

KYSE-180 = assay: cells; conditions: Homo sapiens;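 note: growth inhibition of KYSE-180 cells, read out with a cell viability assay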
Description: SANGER: Inhibition of human KYSE-180 cell growth in a cell viability assay.

KYSE-70 cell line = assay: cells; conditions: Homo sapiens;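 note: cell viability assay read-out, with IC50 expressing suppression of KYSE-70 cell growth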
Description: SANGER: Inhibition of human KYSE-70 cell growth in a cell viability assay.

LCLC-103H cell line = assay: cells; conditions: Homo sapiens
Description: SANGER: Inhibition of human LCLC-103H cell growth in a cell viability assay.

LP-1 = assay: cells; conditions: Homo sapiens;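 note: growth inhibition of human LP-1 cells, with the read-out taken from a cell viability assay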
Description: SANGER: Inhibition of human LP-1 cell growth in a cell viability assay.

LU-165 = assay: cells; conditions: Homo sapiens
Description: SANGER: Inhibition of human LU-165 cell growth in a cell viability assay.

LoVo = assay: cells; conditions: Homo sapiens;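 note: growth inhibition of human LoVo cells, read out with a cell viability assay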
Description: SANGER: Inhibition of human LoVo cell growth in a cell viability assay.

MDA-MB-361 = assay: cells; conditions: Homo sapiens
MDA-MB-415 = assay: cells; conditions: Homo sapiens
ME-180 = assay: cells; conditions: Homo sapiens;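 note: cell viability assay measuring growth inhibition of ME-180 cells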
Description: SANGER: Inhibition of human ME-180 cell growth in a cell viability assay.

MFE-280 = assay: cells; conditions: Homo sapiens;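 note: growth inhibition of MFE-280 cells, determined with a cell viability readout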
Description: SANGER: Inhibition of human MFE-280 cell growth in a cell viability assay.

MKN-28 = assay: cells; conditions: Homo sapiens;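 note: cell viability assay read-out, IC50 reflects suppression of growth of human MKN-28 cells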
Description: SANGER: Inhibition of human MKN28 cell growth in a cell viability assay.

MONO-MAC-6 = assay: cells; conditions: Homo sapiens;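 note: cell viability assay measuring growth inhibition of human MONO-MAC-6 cells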
Description: SANGER: Inhibition of human MONO-MAC-6 cell growth in a cell viability assay.

NCI-H1437 = assay: cells; conditions: Homo sapiens;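 note: growth inhibition of human NCI-H1437 cells, read out by a cell viability assay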
Description: SANGER: Inhibition of human NCI-H1437 cell growth in a cell viability assay.

NCI-H1703 = assay: cells; conditions: Homo sapiens;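 note: growth inhibition of NCI-H1703 cells, read out via a cell viability assay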
Description: SANGER: Inhibition of human NCI-H1703 cell growth in a cell viability assay.

NCI-H1755 = assay: cells; conditions: Homo sapiens;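 note: cell viability readout used to measure growth inhibition of NCI-H1755 cells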
Description: SANGER: Inhibition of human NCI-H1755 cell growth in a cell viability assay.

NCI-H1963 = assay: cells; conditions: Homo sapiens;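 note: cell growth inhibition of the human line, determined with a cell viability assay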
Description: SANGER: Inhibition of human NCI-H1963 cell growth in a cell viability assay.

NCI-H2087 = assay: cells; conditions: Homo sapiens;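 note: growth inhibition determined with a cell viability readout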
Description: SANGER: Inhibition of human NCI-H2087 cell growth in a cell viability assay.

NCI-H2122 = assay: cells; conditions: Homo sapiens;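 note: growth inhibition of the cells, read out with a cell viability assay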
Description: SANGER: Inhibition of human NCI-H2122 cell growth in a cell viability assay.

NCI-H2452 = assay: cells; conditions: Homo sapiens;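 note: growth inhibition of NCI-H2452 cells, read out with a cell viability assay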
Description: SANGER: Inhibition of human NCI-H2452 cell growth in a cell viability assay.

NCI-H292 = assay: cells; conditions: Homo sapiens;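 note: growth inhibition of NCI-H292 cells, read out with a cell viability assay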
Description: SANGER: Inhibition of human NCI-H292 cell growth in a cell viability assay.

NCI-H358 = assay: cells; conditions: Homo sapiens;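 note: growth inhibition of NCI-H358 human cells, read out with a cell viability assay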
Description: SANGER: Inhibition of human NCI-H358 cell growth in a cell viability assay.

NCI-H522 = assay: cells; conditions: Homo sapiens;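 note: cell viability assay measuring growth inhibition of human NCI-H522 cells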
Description: SANGER: Inhibition of human NCI-H522 cell growth in a cell viability assay.

NCI-H719 = assay: cells; conditions: Homo sapiens;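 note: growth inhibition of the cultured cell line, read out with a viability assay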
Description: SANGER: Inhibition of human NCI-H719 cell growth in a cell viability assay.

NCI-H810 = assay: cells; conditions: Homo sapiens;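 note: IC50 reflects inhibition of cancer cell line growth, read out with a cell viability assay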
Description: SANGER: Inhibition of human NCI-H810 cell growth in a cell viability assay.

OE33 = assay: cells; conditions: Homo sapiens;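 note: growth inhibition of human OE33 cells, measured by a cell viability assay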
Description: SANGER: Inhibition of human OE33 cell growth in a cell viability assay.

PC-14 = assay: cells; conditions: Homo sapiens;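 note: cell viability assay measuring inhibition of PC-14 cell growth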
Description: SANGER: Inhibition of human PC-14 cell growth in a cell viability assay.

RD = assay: cells; conditions: Homo sapiens
Description: SANGER: Inhibition of human RD cell growth in a cell viability assay.

RPMI-7951 = assay: cells; conditions: Homo sapiens
Description: SANGER: Inhibition of human RPMI-7951 cell growth in a cell viability assay.

RT-112 = assay: cells; conditions: Homo sapiens
Description: SANGER: Inhibition of human RT-112 cell growth in a cell viability assay.

SCC-4 = assay: cells; conditions: Homo sapiens;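 note: growth inhibition of human SCC-4 cells, read out as cell viability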
Description: SANGER: Inhibition of human SCC-4 cell growth in a cell viability assay.

SF-295 = assay: cells; conditions: Homo sapiens;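 note: growth inhibition of SF-295 cells, read out with a cell viability assay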
Description: SANGER: Inhibition of human SF295 cell growth in a cell viability assay.

SK-LU-1 = assay: cells; conditions: Homo sapiens;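 note: cell viability assay measuring growth inhibition of human SK-LU-1 cells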
Description: SANGER: Inhibition of human SK-LU-1 cell growth in a cell viability assay.

SU-DHL-1 = assay: SANGER: Inhibition of human SU-DHL-1 cell growth in a cell viability assay.
SUP-T1 = assay: cells; conditions: Homo sapiens;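 note: growth inhibition of human SUP-T1 cells, read out as cell viability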
Description: SANGER: Inhibition of human SUP-T1 cell growth in a cell viability assay.

SW1463 = assay: cells; conditions: Homo sapiens;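 note: growth inhibition of SW1463 cells, determined with a cell viability assay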
Description: SANGER: Inhibition of human SW1463 cell growth in a cell viability assay.

SW-620 = assay: cells; conditions: Homo sapiens;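 note: growth inhibition of human SW-620 cells, measured by a cell viability assay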
Description: SANGER: Inhibition of human SW620 cell growth in a cell viability assay.

SW837 = assay: cells; conditions: Homo sapiens;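 note: growth inhibition of SW837 cells, determined with a cell viability assay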
Description: SANGER: Inhibition of human SW837 cell growth in a cell viability assay.

SW948 = assay: cells; conditions: Homo sapiens;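 note: growth inhibition of SW948 cells, read out with a cell viability assay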
Description: SANGER: Inhibition of human SW948 cell growth in a cell viability assay.

5637 = assay: cells; conditions: Homo sapiens
Description: SANGER: Inhibition of human 5637 cell growth in a cell viability assay.

639-V = assay: cells; conditions: Homo sapiens;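 note: growth inhibition of 639-V cells, read out with a cell viability assay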
Description: SANGER: Inhibition of human 639-V cell growth in a cell viability assay.

8505C = assay: cells; conditions: Homo sapiens
Description: SANGER: Inhibition of human 8505C cell growth in a cell viability assay.

A 172 = assay: cells; conditions: Homo sapiens;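 note: growth inhibition of A172 cells, measured with a cell viability readout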
Description: SANGER: Inhibition of human A172 cell growth in a cell viability assay.

ABC-1 = assay: cells; conditions: Homo sapiens;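 note: growth inhibition of human ABC-1 cells, read out by a cell viability assay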
Description: SANGER: Inhibition of human ABC-1 cell growth in a cell viability assay.

AGS = assay: cells; conditions: Homo sapiens;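 note: growth inhibition of AGS cells, determined with a cell viability assay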
Description: SANGER: Inhibition of human AGS cell growth in a cell viability assay.

BEN = assay: cells; conditions: Homo sapiens;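 note: growth inhibition of the BEN cell line, read out with a cell viability assay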
Description: SANGER: Inhibition of human BEN cell growth in a cell viability assay.

BFTC-909 = assay: cells; conditions: Homo sapiens
Description: SANGER: Inhibition of human BFTC-909 cell growth in a cell viability assay.

BOKU = assay: cells; conditions: Homo sapiens;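 note: growth inhibition of the human BOKU cell line, read out by a cell viability assay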
Description: SANGER: Inhibition of human BOKU cell growth in a cell viability assay.

BT-20 = assay: cells; conditions: Homo sapiens;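 note: cell viability assay measuring suppression of growth in human BT-20 cells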
Description: SANGER: Inhibition of human BT-20 cell growth in a cell viability assay.

TYK-nu = assay: cells; conditions: Homo sapiens;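 note: growth inhibition of human TYK-nu cells, read out by a cell viability assay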
Description: SANGER: Inhibition of human TYK-nu cell growth in a cell viability assay.

UACC-62 = assay: cells; conditions: Homo sapiens;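 note: growth inhibition of human UACC-62 cells, read out by a cell viability assay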
Description: SANGER: Inhibition of human UACC-62 cell growth in a cell viability assay.

CO[C@@]12[C@H](COC(N)=O)C3=C(C(=O)C(C)=C(N)C3=O)N1C[C@@H]1N[C@@H]12 [MITOMYCIN]
IC50 (Ca9-22): 156 nM | IC50 (Calu-3): 321 nM | IC50 (D-392MG): 6680 nM | IC50 (D-542MG): 602 nM | IC50 (EFO-27): 1130 nM | IC50 (HCC1395): 1060 nM | IC50 (HO-1-N-1): 441 nM | IC50 (HPAF-II): 1100 nM | IC50 (HT55): 1950 nM | IC50 (IM-9): 56.2 nM | IC50 (IMR-5): < 62.5 nM | IC50 (KARPAS-422): 907 nM | IC50 (KYSE-180): 202 nM | IC50 (KYSE-70 cell line): 224 nM | IC50 (LCLC-103H cell line): 461 nM | IC50 (LP-1): 4560 nM | IC50 (LU-165): 513 nM | IC50 (LoVo): 431 nM | IC50 (MDA-MB-361): 809 nM | IC50 (MDA-MB-415): 724 nM | IC50 (ME-180): 40.1 nM | IC50 (MFE-280): 8350 nM | IC50 (MKN-28): 230 nM | IC50 (MONO-MAC-6): 72.4 nM | IC50 (NCI-H1437): 126 nM | IC50 (NCI-H1703): 277 nM | IC50 (NCI-H1755): 5440 nM | IC50 (NCI-H1963): 974 nM | IC50 (NCI-H2087): 85.7 nM | IC50 (NCI-H2122): < 62.5 nM | IC50 (NCI-H2452): 8940 nM | IC50 (NCI-H292): 884 nM | IC50 (NCI-H358): 276 nM | IC50 (NCI-H522): 169 nM | IC50 (NCI-H719): 35.1 nM | IC50 (NCI-H810): 252 nM | IC50 (OE33): 338 nM | IC50 (PC-14): 491 nM | IC50 (RD): 1900 nM | IC50 (RPMI-7951): 168 nM | IC50 (RT-112): 178 nM | IC50 (SCC-4): 388 nM | IC50 (SF-295): < 62.5 nM | IC50 (SK-LU-1): < 62.5 nM | IC50 (SU-DHL-1): < 62.5 nM | IC50 (SUP-T1): 110 nM | IC50 (SW1463): 2080 nM | IC50 (SW-620): 39.8 nM | IC50 (SW837): 276 nM | IC50 (SW948): 3750 nM | IC50 5637: 31.9 nM | IC50 (639-V): < 62.5 nM | IC50 (8505C): 430 nM | IC50 (A 172): 538 nM | IC50 (ABC-1): 61.2 nM | IC50 (AGS): 106 nM | IC50 (BEN): 935 nM | IC50 (BFTC-909): 85.3 nM | IC50 (BOKU): 104 nM | IC50 (BT-20): 312 nM | IC50 (TYK-nu): 58.7 nM | IC50 (UACC-62): 2160 nM
